Experiment: xn = mol fraction of the nth substance listed, in the solute-free solvent

CC(C)OC(=O)C(C)NP(=O)(OCC1OC(n2ccc(=O)[nH]c2=O)C(C)(F)C1O)Oc1ccccc1 (stereo not given) + CCO + O
solubility (g/100 g solution)
Conditions | 278.15 K | 283.15 K | 288.15 K | 293.15 K | 298.15 K | 303.15 K | 308.15 K | 313.15 K | 318.15 K
x2 = 0.04165 | 0.327 | 0.484 | 0.653 | 0.882 | 1.17 | 1.57 | 2.08 | 2.71 | 3.42
x2 = 0.08908 | 1.42 | 2.02 | 2.65 | 3.46 | 4.44 | 5.7 | 7.2 | 9.04 | 10.9
x2 = 0.1436 | 3.58 | 4.78 | 6.12 | 7.78 | 9.72 | 12.1 | 14.7 | 17.7 | 21
x2 = 0.2068 | 5.74 | 7.67 | 9.66 | 12 | 14.8 | 17.8 | 21.3 | 25.1 | 29
x2 = 0.2812 | 7.44 | 9.76 | 12.2 | 14.9 | 18.1 | 21.6 | 25.5 | 29.7 | 33.9
x2 = 0.3698 | 9.07 | 11.6 | 14.4 | 17.3 | 20.7 | 24.9 | 29 | 33.2 | 37.7
x2 = 0.4772 | 11 | 13.7 | 16.6 | 20.2 | 24.2 | 28.3 | 32.5 | 36.8 | 41.3
x2 = 0.6101 | 13.9 | 17 | 20.8 | 24.3 | 28.5 | 32.3 | 37.2 | 41.6 | 46.3
x2 = 0.7788 | 17.6 | 20.9 | 24.6 | 28.8 | 33.3 | 37.8 | 42.4 | 47 | 51.6

CC(C)=CCCC(C)C1CCC2(C)C3=C(CCC12C)C1(C)CCC(O)C(C)(C)C1CC3 (stereo not given) + CO + O
solubility (g/100 g solution)
Conditions | 296.67 K | 306.81 K | 316.94 K | 328.97 K | 338.78 K
x2 = 0.0229 | 8.14e-06 | 1.37e-05 | 3.09e-05 | 6.98e-05 | 0.000153
x2 = 0.09675 | 8.15e-06 | 1.39e-05 | 3.32e-05 | 8.15e-05 | 0.000161
x2 = 0.3065 | 7.26e-06 | 1.51e-05 | 3.94e-05 | 8.99e-05 | 0.000193
x2 = 0.5109 | 0.00011 | 0.000197 | 0.000378 | 0.000796 | 0.00195
x2 = 0.8048 | 0.0189 | 0.0422 | 0.0785 | 0.161 | –

COc1cc2c(cc1OC)-c1cc3ccc(OC)c(OC)c3c[n+]1CC2.[Cl-] + O + CC(C)O
solubility (g/100 g solution)
Conditions | 283.15 K | 288.15 K | 293.15 K | 298.15 K | 303.15 K | 308.15 K | 313.15 K | 318.15 K | 323.15 K | 328.15 K
x2 = 0.2703 | 0.15 | 0.185 | 0.238 | 0.315 | 0.402 | 0.504 | 0.629 | 0.775 | 0.949 | 1.16
x2 = 0.4546 | 0.201 | 0.247 | 0.317 | 0.417 | 0.531 | 0.663 | 0.824 | 1.01 | 1.24 | 1.51
x2 = 0.5883 | 0.269 | 0.33 | 0.423 | 0.553 | 0.7 | 0.872 | 1.08 | 1.32 | 1.6 | 1.95
x2 = 0.6897 | 0.356 | 0.437 | 0.559 | 0.725 | 0.933 | 1.19 | 1.46 | 1.76 | 2.11 | 2.49
x2 = 0.7693 | 0.463 | 0.593 | 0.762 | 0.958 | 1.25 | 1.49 | 1.82 | 2.18 | 2.62 | 3.11
x2 = 0.8334 | 0.587 | 0.719 | 0.914 | 1.17 | 1.46 | 1.8 | 2.19 | 2.65 | 3.18 | 3.81
x2 = 0.8861 | 0.724 | 0.887 | 1.12 | 1.43 | 1.85 | 2.25 | 2.72 | 3.24 | 3.85 | 4.53
x2 = 0.9303 | 0.871 | 1.07 | 1.35 | 1.7 | 2.17 | 2.67 | 3.23 | 3.87 | 4.64 | 5.28
x2 = 0.9678 | 1.03 | 1.26 | 1.59 | 1.99 | 2.5 | 3.05 | 3.69 | 4.4 | 5.23 | 6.04

COc1cc2c(cc1OC)-c1cc3ccc(OC)c(OC)c3c[n+]1CC2.[Cl-] + O + CC(O)CO
solubility (g/100 g solution)
Conditions | 283.15 K | 288.15 K | 293.15 K | 298.15 K | 303.15 K | 308.15 K | 313.15 K | 318.15 K | 323.15 K | 328.15 K
x2 = 0.3194 | 0.0156 | 0.0224 | 0.0316 | 0.0473 | 0.0678 | 0.0953 | 0.132 | 0.184 | 0.251 | 0.339
x2 = 0.5135 | 0.0475 | 0.0664 | 0.0917 | 0.133 | 0.186 | 0.256 | 0.347 | 0.47 | 0.626 | 0.826
x2 = 0.6441 | 0.104 | 0.142 | 0.193 | 0.274 | 0.376 | 0.505 | 0.672 | 0.891 | 1.17 | 1.51
x2 = 0.7379 | 0.183 | 0.245 | 0.329 | 0.457 | 0.614 | 0.811 | 1.06 | 1.38 | 1.78 | 2.26
x2 = 0.8085 | 0.279 | 0.368 | 0.512 | 0.702 | 0.905 | 1.16 | 1.5 | 1.92 | 2.41 | 3
x2 = 0.8636 | 0.395 | 0.513 | 0.673 | 0.9 | 1.21 | 1.57 | 1.97 | 2.46 | 3.04 | 3.73
x2 = 0.9079 | 0.537 | 0.688 | 0.893 | 1.17 | 1.55 | 1.96 | 2.44 | 3 | 3.69 | 4.46
x2 = 0.9441 | 0.72 | 0.971 | 1.23 | 1.57 | 1.95 | 2.41 | 2.97 | 3.63 | 4.39 | 5.26
x2 = 0.9744 | 0.947 | 1.18 | 1.5 | 1.9 | 2.41 | 2.97 | 3.61 | 4.32 | 5.17 | 6.09

Nc1cccc(S(=O)(=O)c2cccc(N)c2)c1 + CC(C)O + O
solubility (g/100 g solution)
Conditions | 283.15 K | 288.15 K | 293.15 K | 298.15 K | 303.15 K | 308.15 K | 313.15 K | 318.15 K | 323.15 K | 328.15 K
x2 = 0.03225 | 0.0588 | 0.08 | 0.109 | 0.143 | 0.188 | 0.248 | 0.319 | 0.411 | 0.517 | 0.662
x2 = 0.06974 | 0.109 | 0.146 | 0.196 | 0.259 | 0.34 | 0.424 | 0.549 | 0.698 | 0.874 | 1.09
x2 = 0.1139 | 0.169 | 0.219 | 0.286 | 0.375 | 0.488 | 0.618 | 0.782 | 0.98 | 1.22 | 1.52
x2 = 0.1666 | 0.236 | 0.312 | 0.396 | 0.516 | 0.657 | 0.834 | 1.05 | 1.3 | 1.59 | 1.98
x2 = 0.2307 | 0.299 | 0.388 | 0.5 | 0.652 | 0.816 | 1.02 | 1.28 | 1.6 | 1.97 | 2.4
x2 = 0.3103 | 0.36 | 0.459 | 0.599 | 0.751 | 0.954 | 1.2 | 1.51 | 1.84 | 2.24 | 2.73
x2 = 0.4117 | 0.398 | 0.513 | 0.662 | 0.841 | 1.07 | 1.34 | 1.65 | 2.05 | 2.48 | 3.01
x2 = 0.5454 | 0.424 | 0.54 | 0.702 | 0.895 | 1.11 | 1.4 | 1.71 | 2.14 | 2.62 | 3.17
x2 = 0.7297 | 0.432 | 0.543 | 0.686 | 0.878 | 1.11 | 1.38 | 1.72 | 2.09 | 2.57 | 3.12

Cc1[nH]c(=O)c(C#N)cc1-c1ccncc1 + CCO + O
solubility (g/100 g solution)
Conditions | 278.15 K | 283.15 K | 288.15 K | 293.15 K | 298.15 K | 303.15 K | 308.15 K | 313.15 K | 318.15 K | 323.15 K
x2 = 0.04165 | 0.000675 | 0.000813 | 0.000966 | 0.00114 | 0.00133 | 0.00153 | 0.00174 | 0.00198 | 0.00224 | 0.00254
x2 = 0.08908 | 0.000855 | 0.00103 | 0.00123 | 0.00144 | 0.00169 | 0.00194 | 0.00221 | 0.00251 | 0.00285 | 0.00321
x2 = 0.1436 | 0.00114 | 0.00138 | 0.00163 | 0.00192 | 0.00225 | 0.00258 | 0.00294 | 0.00333 | 0.00377 | 0.00426
x2 = 0.2068 | 0.00154 | 0.00186 | 0.00221 | 0.00259 | 0.00303 | 0.00348 | 0.00395 | 0.00447 | 0.00505 | 0.0057
x2 = 0.2812 | 0.00206 | 0.00239 | 0.00288 | 0.00338 | 0.0039 | 0.00453 | 0.00517 | 0.00586 | 0.00662 | 0.00754
x2 = 0.3698 | 0.00266 | 0.00322 | 0.00381 | 0.00446 | 0.00518 | 0.00596 | 0.00676 | 0.00763 | 0.0086 | 0.00968
x2 = 0.4772 | 0.00326 | 0.00385 | 0.00461 | 0.0054 | 0.00629 | 0.00717 | 0.00815 | 0.00921 | 0.0105 | 0.0119
x2 = 0.6101 | 0.00373 | 0.00451 | 0.0054 | 0.00637 | 0.00745 | 0.00844 | 0.00959 | 0.0108 | 0.0122 | 0.0138
x2 = 0.7788 | 0.00412 | 0.00503 | 0.00602 | 0.00705 | 0.00817 | 0.00928 | 0.0105 | 0.0119 | 0.0135 | 0.0153

Cc1[nH]c(=O)c(C#N)cc1-c1ccncc1 + CC(C)O + O
solubility (g/100 g solution)
Conditions | 278.15 K | 283.15 K | 288.15 K | 293.15 K | 298.15 K | 303.15 K | 308.15 K | 313.15 K | 318.15 K | 323.15 K
x2 = 0.03225 | 0.00105 | 0.00126 | 0.00148 | 0.00173 | 0.00202 | 0.00231 | 0.00261 | 0.00296 | 0.00333 | 0.00376
x2 = 0.06974 | 0.00174 | 0.00206 | 0.00243 | 0.00283 | 0.0033 | 0.00374 | 0.00423 | 0.00479 | 0.00537 | 0.00604
x2 = 0.1139 | 0.00266 | 0.00311 | 0.00366 | 0.00429 | 0.00498 | 0.00565 | 0.00635 | 0.00712 | 0.00801 | 0.00906
x2 = 0.1666 | 0.00378 | 0.00445 | 0.00523 | 0.00608 | 0.00705 | 0.00798 | 0.009 | 0.0102 | 0.0114 | 0.0128
x2 = 0.2307 | 0.00502 | 0.00587 | 0.00684 | 0.00797 | 0.00927 | 0.0105 | 0.0119 | 0.0135 | 0.0151 | 0.017
x2 = 0.3103 | 0.00629 | 0.00741 | 0.00871 | 0.0101 | 0.0118 | 0.0133 | 0.015 | 0.0171 | 0.019 | 0.0214
x2 = 0.4117 | 0.00743 | 0.00875 | 0.0102 | 0.0119 | 0.0137 | 0.0155 | 0.0178 | 0.02 | 0.0224 | 0.0256
x2 = 0.5454 | 0.0083 | 0.00978 | 0.0115 | 0.0135 | 0.0155 | 0.0177 | 0.02 | 0.0226 | 0.0256 | 0.0291
x2 = 0.7297 | 0.00873 | 0.0102 | 0.012 | 0.0141 | 0.0163 | 0.0188 | 0.0214 | 0.0243 | 0.0274 | 0.0314

From the CheMixHub drug solubility set
